Test results from US12377065B2, “Compositions for treatment of substance use disorder” (UNIVERSITY OF NORTH TEXAS HEALTH SCIENCE CENTER, priority 2019, dated 2025).

Assays:
Swiss-Webster mice [1] = test: Acute cocaine-induced hyperlocomotion (Example 2); conditions: cocaine 40 mg/kg; for effect on acute cocaine-induced hyperlocomotion: all doses tested, i.p., ANOVA effect of treatment
Swiss-Webster mice [2] = test: Cocaine-conditioned locomotor response, acquisition and expression (Example 2)
Swiss-Webster mice [3] = test: Nicotine-induced locomotor activity test; format: in vivo; conditions: 60-90 min; for motor activity, compound alone: no nicotine, vs vehicle
Description: Test Compounds. […] Chantix (varencline, 3 mg/kg) was obtained from National Institute on Drug Abuse. All drugs were dissolved in 0.9% saline and pH was maintained at 7.
Testing Procedures. […] In all studies, horizontal activity (interruption of photocell beams) was measured for 120 min within 10-min periods.
Different groups of Swiss-Webster mice were pretreated via injection (IP) with either DMTU (5 or 10 mg/kg), or Chantix (varenicline, 3 mg/kg) or vehicle (0.9% saline) for 30 minutes (FIG. 10). Following pretreatment all groups were mice were injected via the subcutaneous (sc) route with either 0.9% saline or r nicotine (1.6 mg/kg) just prior to placement in the activity chamber. The activity of all mice were recorded for a period of 2-h (FIG. 10).

mice = test: Cocaine-conditioned place preference; format: in vivo
Description: All mice underwent standard place conditioning. As depicted in FIG. 3, the procedures of the first four days were identical to those described previously (Shetty et al., 2017). A preference score was calculated for each individual mouse using the following equation: Time spent on S+ (at test)−Time spent on S+ (at pretest). The preference score assesses the nature and magnitude of drug conditioning to the S+ floor, with positive numbers reflecting an increase in preference for S+ following the experience with cocaine and negative numbers indicating a decrease in preference following experience with cocaine. A second test session was conducted 24 hours later (on day 5). This test was identical to the test session on day 4 except that 30 minutes prior to testing, mice were pretreated with either 5 or 10 mg/kg DMTU (i.p.). A preference score was calculated after the second test in a similar fashion as described for the first preference test.
Data Analysis. […] The existence of subgroups was determined through application of K-means clustering analysis (SYSTAT v. 13.1). In this fashion, Test 1 data was partitioned into 3 subgroups: mice with high positive preference scores (labeled as High Seeker group), mice with low positive preference scores (labeled as Low Seeker group), and mice with negative preference scores (labeled as Avoider group).
Data from the mice treated with 5 mg/kg DMTU during Test 2 were analyzed separately from data from mice treated with 10 mg/kg DMTU. Separate one-way repeated measures analysis of variance (ANOVA) was conducted, with test (comparison of preference score on test day 1 and day 2) as a within-subject factor.
To assess the ability of DMTU (by either the 5 mg/kg or 10 mg/kg dose) to reduce cocaine-induced preference on different subsets of mice, within-subject planned comparisons of preference scores on test 1 and 2 were performed for each cluster separately (Avoider, Low Seeker, High Seeker). Alpha was set to 0.05.

Swiss-Webster mice [4] = test: Cocaine-conditioned locomotor activity, expression test (Example 1); conditions: last 15 minutes, vs Paired-vehicle, cocaine 40 mg/kg
[5] = all doses tested, i.p., ANOVA effect of treatment, last 15 min

**Q.** What does the source list for `COc1cc(C(C)=O)ccc1O` [Apocynin, apocynin]?
**A.** effect on acute cocaine-induced hyperlocomotion (Swiss-Webster mice [1]): no significant main effect; expression of the cocaine-conditioned locomotor response (Swiss-Webster mice [2]; 25 mg/kg i.p., initial 15 min of the test, post hoc): facilitated expression of the conditioned response; acquisition of the cocaine-conditioned locomotor response (Swiss-Webster mice [2]; [5]): no effect on acquisition; expression of the cocaine-conditioned locomotor response (Swiss-Webster mice [2]; [5]): no effect on expression

**Q.** How did the “motor activity with nicotine” value (Swiss-Webster mice [3]; 3 mg/kg IP 30 min pretreatment + nicotine 1.6 mg/kg sc) turn out when `c1cnc2cc3c(cc2n1)[C@@H]1CNC[C@H]3C1` [Chantix, varenicline] was run?
**A.** The value was “significant reduction”.

**Q.** What about the “motor activity, compound alone” value (Swiss-Webster mice [3]; 3 mg/kg IP alone) of the same compound?
**A.** The value was “significant reduction”.

**Q.** With `CNC(=S)NC` [DMTU, N,N′-dimethylthiourea] as the compound, how does the “cocaine-conditioned place preference score, Test 2 vs Test 1” value (mice; 5 mg/kg i.p. 30 min before Test 2, clusters combined, cocaine 15 mg/kg) read?
**A.** The value was “not significantly altered”.

**Q.** What about the “cocaine-conditioned place preference score, Test 2 vs Test 1” value (mice; 5 mg/kg i.p., Avoider group) of the same compound?
**A.** The value was “Neither dose of DMTU succeeded in blocking preference scores”.

**Q.** What about the “cocaine-conditioned place preference score, Test 2 vs Test 1” value (mice; 5 mg/kg i.p., High Seeker subset) of the same compound?
**A.** Its value is “significantly reduced preference scores”.

**Q.** And the “cocaine-conditioned place preference score, Test 2 vs Test 1” value (mice; 5 mg/kg i.p., Low Seeker group)?
**A.** The value was “Neither dose of DMTU succeeded in blocking preference scores”.

**Q.** What about the “cocaine-conditioned place preference score, Test 2 vs Test 1” value (mice; 10 mg/kg i.p. 30 min before Test 2, clusters combined, cocaine 15 mg/kg) of the same compound?
**A.** The value was “not significantly altered”.

**Q.** And the “cocaine-conditioned place preference score, Test 2 vs Test 1” value (mice; 10 mg/kg i.p., Avoider group)?
**A.** The value was “Neither dose of DMTU succeeded in blocking preference scores”.

**Q.** And the “cocaine-conditioned place preference score, Test 2 vs Test 1” value (mice; 10 mg/kg i.p., High Seeker subset)?
**A.** The value was “significantly reduced preference scores”.

**Q.** What about the “cocaine-conditioned place preference score, Test 2 vs Test 1” value (mice; 10 mg/kg i.p., Low Seeker group) of the same compound?
**A.** The value was “Neither dose of DMTU succeeded in blocking preference scores”.

**Q.** And the “nicotine-induced stimulant locomotor activity (horizontal activity, counts)” value (Swiss-Webster mice [3]; 5 mg/kg IP 30 min pretreatment + nicotine 1.6 mg/kg sc, only 10 mg/kg was significant)?
**A.** Its value is “modulated nicotine induced stimulant action”.

**Q.** What about the “nicotine-induced stimulant locomotor activity (horizontal activity, counts)” value (Swiss-Webster mice [3]; 10 mg/kg IP 30 min pretreatment + nicotine 1.6 mg/kg sc, vs nicotine alone) of the same compound?
**A.** Its value is “significantly reduced the nicotine stimulant activity”.

**Q.** What about the “motor activity, compound alone” value (Swiss-Webster mice [3]; DMTU alone (5 or 10 mg/kg IP)) of the same compound?
**A.** Its value is “failed to alter the motor activity”.

**Q.** What about the “effect on acute cocaine-induced hyperlocomotion” value (Swiss-Webster mice [1]) of the same compound?
**A.** The value was “no significant main effect”.

**Q.** And the “expression of cocaine-conditioned locomotor activity (horizontal activity, counts)” value (Swiss-Webster mice [4]; 5 mg/kg i.p. 30 min before expression test)?
**A.** Its value is “did not affect activity”.

**Q.** And the “expression of cocaine-conditioned locomotor activity (horizontal activity, counts)” value (Swiss-Webster mice [4]; 10 mg/kg i.p. 30 min before expression test)?
**A.** Its value is “significantly inhibited cocaine-conditioned locomotor activity”.

**Q.** What about the “acquisition of the cocaine-conditioned locomotor response” value (“acquisition” for short) (Swiss-Webster mice [2]; 50 mg/kg i.p., post-hoc) of the same compound?
**A.** The value was “significantly attenuated acquisition”.

**Q.** And the “expression of the cocaine-conditioned locomotor response” value (Swiss-Webster mice [2]; 25-50 mg/kg i.p., post-hoc)?
**A.** The value was “significantly attenuating expression”.

**Q.** And the “ED50:AD50 ratio” value (Swiss-Webster mice [2])?
**A.** Its value is 4.676.

**Q.** And the “acquisition” value (Swiss-Webster mice [2]; [5])?
**A.** Its value is “significant main effect”.

**Q.** What about the “expression of the cocaine-conditioned locomotor response” value (Swiss-Webster mice [2]; [5]) of the same compound?
**A.** Its value is “significant effect on expression”.

**Q.** Which results are given for `CC(=O)N[C@@H](CS)C(=O)O` [NAC, N-acetylcysteine]?
**A.** effect on acute cocaine-induced hyperlocomotion (Swiss-Webster mice [1]): no significant main effect; expression of the cocaine-conditioned locomotor response (Swiss-Webster mice [2]; 100 mg/kg i.p., post-hoc): significant attenuation; acquisition of the cocaine-conditioned locomotor response (Swiss-Webster mice [2]; 250 mg/kg i.p., post-hoc vs paired control): significantly attenuated acquisition; ED50:AD50 ratio (Swiss-Webster mice [2]): 1.2731; acquisition of the cocaine-conditioned locomotor response (Swiss-Webster mice [2]; [5]): no significant main effect; expression of the cocaine-conditioned locomotor response (Swiss-Webster mice [2]; [5]): main effect

**Q.** `O=C1O[C@H]([C@@H](O)CO)C(O)=C1O` [Vitamin C, L-ascorbic acid] was tested. Which “effect on acute hyperkinetic effect of cocaine” value (Swiss-Webster mice [1]; 100 mg/kg i.p.) did it give?
**A.** Its value is “facilitated the acute hyperkinetic effect of cocaine”.

**Q.** What about the “acquisition” value (Swiss-Webster mice [2]; 100 mg/kg i.p., initial 15 min of the test, post-hoc) of the same compound?
**A.** The value was “facilitated acquisition of the conditioned locomotor response”.

**Q.** And the “acquisition” value (Swiss-Webster mice [2]; [5])?
**A.** The value was “failed to attenuate acquisition”.

**Q.** And the “expression of the cocaine-conditioned locomotor response” value (Swiss-Webster mice [2]; [5])?
**A.** The value was “failed to attenuate”.

**Q.** For `Cc1c(C)c2c(c(C)c1O)CC[C@@](C)(CCC[C@H](C)CCC[C@H](C)CCCC(C)C)O2` [Vitamin E, (+)-alpha-tocopherol], which “effect on acute cocaine-induced hyperlocomotion” value (Swiss-Webster mice [1]) is on record?
**A.** Its value is “had no effect on the acute effect of cocaine”.

**Q.** What about the “acquisition” value (Swiss-Webster mice [2]; [5]) of the same compound?
**A.** Its value is “failed to attenuate acquisition”.

**Q.** What about the “expression of the cocaine-conditioned locomotor response” value (Swiss-Webster mice [2]; [5]) of the same compound?
**A.** The value was “failed to attenuate”.
